Measured values published in patent publication EP4549424A1, “NEW LITHIUM EXTRACTING AGENT AND LIQUID ORGANIC MIXTURE THEREOF, AND METHOD FOR EXTRACTING LITHIUM BY MEANS OF EXTRACTION” (Beijing Salt Lake Technology Development Company Limited, priority 2022, dated 2024).

Key:
Details in all cases: organic phase and phase ratio per example
[1] = Liquid-liquid extraction from aqueous lithium-containing solution, ICP detection: lithium;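 further: component concentrations in the aqueous phase were measured by inductively coupled plasma optical emission spectrometry after shaking and phase separation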
[2] = Liquid-liquid extraction from aqueous lithium-containing solution, ICP detection: sodium;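 further: sodium measured by inductively coupled plasma optical emission spectrometry in the diluted aqueous phase left after shaking with the organic phase and phase separation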
[3] = Liquid-liquid extraction from aqueous lithium-containing solution, ICP detection: potassium;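 further: analysis by ICP optical emission spectrometry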
[4] = feed B1 (cLi 0.807, cNa 56.12 g/L, pH 11.48)
[5] = feed B2 (cLi 0.947, cNa 51.63 g/L, pH 10.77)
[6] = feed B3 (cLi 0.937, cNa 119.10, cK 43.03 g/L, pH 9.60)
[7] = feed B4 (cLi 0.152, cNa 34.20, cK 2.36 g/L, pH 9.14)
[8] = feed B5 (cLi 0.261, cNa 39.98, cK 7.61 g/L, pH 9.49)
[9] = feed B7 (cLi 0.833, cNa 55.60, cK 5.37 g/L, pH 12.05), 26°C

For `CCCCCCOc1ccc(C(=O)c2ccccc2)c(O)c1` [Example 8, 4-hyxyloxy-2-hydroxydibenzophenone], the “extraction rate for lithium ions” value [1, 4] was 67.0%, the “separation factor of Li/Na” value [1, 4] was 29.5 and the “extraction rate for sodium ions” value [2, 4] was 6.5%.

For `CCCCCCCOc1ccc(C(=O)c2ccccc2)c(O)c1` [Example 9, 4-heptoxy-2-hydroxydibenzophenone], the “extraction rate for lithium ions” value [1, 4] was 60.8%, the “separation factor of Li/Na” value [1, 4] was 23.6 and the “extraction rate for sodium ions” value [2, 4] was 6.2%.

In the case of `CCCCCCCCOc1ccc(C(=O)c2ccccc2)c(O)c1` [Example 10, 4-octyloxy-2-hydroxydibenzophenone], the “extraction rate for lithium ions” value [1, 5] is reported as 9.8%, the “separation factor of Li/Na” value [1, 5] is reported as 2.3 and the “extraction rate for sodium ions” value [2, 5] is reported as 4.5%.

With `CCCCCCCCCCOc1ccc(C(=O)c2ccccc2)c(O)c1` [Example 11, 4-decyloxy-2-hydroxydibenzophenone] the “extraction rate for lithium ions” value [1, 6] was 3.1%, the “separation factor of Li/Na” value [1, 6] was 3.5 and the “extraction rate for sodium ions” value [2, 6] was 0.9%. The “cK, remaining aqueous phase R1” value [3, 6] was 42.65 g/L.

With `CCCCCCCCOc1cc(O)c(C(=O)c2ccccc2)cc1[N+](=O)[O-]` [Example 13, 4-octyloxy-5-nitro-2-hydroxydibenzophenone] the “extraction rate for lithium ions” value [1, 6] was 64.7%, the “separation factor of Li/K” value [1, 6] was 39.9 and the “separation factor of Li/Na” value [1, 6] was 33.2. The “extraction rate for sodium ions” value [2, 6] was 5.2% and the “extraction rate for potassium ions” value [3, 6] was 4.4%.

With `CCCCCCCCCCCCOc1cc(O)c(C(=O)c2ccccc2)cc1Br` [Example 15, 4-dodecyloxy-5-bromo-2-hydroxydibenzophenone] the “extraction rate for lithium ions” value [1, 7] was 64.5%, the “separation factor of Li/K” value [1, 7] was 5.8 and the “separation factor of Li/Na” value [1, 7] was 24.4. For the same molecule, the “extraction rate for sodium ions” value [2, 7] was 6.9%, the “cK, remaining aqueous phase R1” value [3, 7] was 1.80 g/L and the “extraction rate for potassium ions” value [3, 7] was 23.7%.

With `CCCCCCCCOc1c([N+](=O)[O-])cc(C(=O)c2ccccc2)c(O)c1[N+](=O)[O-]` [Example 16, 4-octyloxy-2,5-dinitro-2-hydroxydibenzophenone] the “extraction rate for lithium ions” value [1, 8] was 88.5%, the “separation factor of Li/K” value [1, 8] was 73.7 and the “separation factor of Li/Na” value [1, 8] was 52.9. For the same molecule, the “extraction rate for sodium ions” value [2, 8] was 12.7%, the “cK, remaining aqueous phase R1” value [3, 8] was 6.89 g/L and the “extraction rate for potassium ions” value [3, 8] was 9.5%.

For `COc1ccc(C(=O)c2ccc(OC)cc2O)c(O)c1` [Example 28, 2,2'-dihydroxy-4,4'-dimethoxydibenzophenone], the “extraction rate for lithium ions” value [1, 4] was 83.6%, the “separation factor of Li/Na” value [1, 4] was 146.7 and the “extraction rate for sodium ions” value [2, 4] was 3.4%.

In the case of `COc1cccc(O)c1C(C)=O` [Example 31, 2-hydroxy-6-methoxyacetophenone], the “extraction rate for lithium ions” value [1, 9] is reported as 53.42%, the “separation factor of Li/Na” value [1, 9] is reported as 10.5 and the “extraction rate for sodium ions” value [2, 9] is reported as 9.86%. The “extraction rate for potassium ions” value [3, 9] was 3.2%.

With `CC(=O)c1cc(OCc2ccccc2)ccc1O` [Example 32, 2-hydroxy-5-benzyloxyacetophenone] the “extraction rate for lithium ions” value [1, 9] was 46.6%, the “separation factor of Li/Na” value [1, 9] was 10.3 and the “extraction rate for sodium ions” value [2, 9] was 7.8%. The “cK, remaining aqueous phase R1” value [3, 9] was 5.01 g/L and the “extraction rate for potassium ions” value [3, 9] was 6.7%.

In the case of `COc1ccc(C(C)=O)c(O)c1OC` [Example 33, 2-hydroxy-3,4-dimethoxyacetophenone], the “extraction rate for lithium ions” value [1, 9] is reported as 50.06%, the “separation factor of Li/Na” value [1, 9] is reported as 7.4 and the “extraction rate for sodium ions” value [2, 9] is reported as 11.94%. The “cK, remaining aqueous phase R1” value [3, 9] was 4.95 g/L and the “extraction rate for potassium ions” value [3, 9] was 7.8%.

With `CC(=O)c1cccc([N+](=O)[O-])c1O` [Example 34, 2-hydroxy-3-nitrocetophenone] the “extraction rate for lithium ions” value [1, 9] was 93.28%, the “separation factor of Li/Na” value [1, 9] was 156 and the “extraction rate for sodium ions” value [2, 9] was 8.17%. The “extraction rate for potassium ions” value [3, 9] was 4.5%.

In the case of `CC(=O)c1ccc([N+](=O)[O-])cc1O` [Example 35, 2-hydroxy-4-nitrocetophenone], the “extraction rate for lithium ions” value [1, 9] is reported as 91.72%, the “separation factor of Li/Na” value [1, 9] is reported as 145 and the “extraction rate for sodium ions” value [2, 9] is reported as 7.09%. The “extraction rate for potassium ions” value [3, 9] was 3.0%.

In the case of `CC(=O)c1c(O)cccc1[N+](=O)[O-]` [Example 36, 2-hydroxy-6-nitrocetophenone], the “extraction rate for lithium ions” value [1, 9] is reported as 81.1%, the “separation factor of Li/Na” value [1, 9] is reported as 48 and the “extraction rate for sodium ions” value [2, 9] is reported as 8.2%. For the same molecule, the “extraction rate for potassium ions” value [3, 9] was 9.3%.

With `CC(=O)c1cc(Cl)cc([N+](=O)[O-])c1O` [Example 37, 5-chloro-2-hydroxy-3-nitrocetophenone] the “extraction rate for lithium ions” value [1, 9] was 92.1%, the “separation factor of Li/Na” value [1, 9] was 120 and the “extraction rate for sodium ions” value [2, 9] was 8.7%. The “cK, remaining aqueous phase R1” value [3, 9] was 4.93 g/L and the “extraction rate for potassium ions” value [3, 9] was 9.2%.

For `O=C(c1ccccc1)c1cc(Cl)ccc1O` [Example 38, 2-hydroxy-5-chlorodibenzophenone], the “extraction rate for lithium ions” value [1, 9] was 56.06%, the “separation factor of Li/Na” value [1, 9] was 13.5 and the “extraction rate for sodium ions” value [2, 9] was 8.7%. The “cK, remaining aqueous phase R1” value [3, 9] was 4.99 g/L and the “extraction rate for potassium ions” value [3, 9] was 7.1%.
